# Test results published in patent US11331299B2, “Medicinal use of serrulatane diterpenes” (The University of Sydney, priority 2016, dated 2022).
# Where two headings read alike, the source gives them in different places.
# Tested on: 280 human cancer cell lines
# Assay: OncoPanel cell proliferation assay (10-day)
# Format: cell-based
# Settings: Homo sapiens; for GI50: read-out: Cell Count GI50; for IC50: read-out: Cell Count IC50; for EC50: read-out: Cell Count EC50
# [1] = KHOS-240S, Soft Tissue - Osteosarcoma
# [2] = ME-180, ME-180, Female GU - Ovary
# [3] = MG-63, MG-63, Soft Tissue - Osteosarcoma
# [4] = MHH-PREB-1, MHH-PREB-1, Leukemia
# [5] = MIA PaCa-2, Mia PaCa-2, Pancreas
# [6] = MS751, MS751, Female GU - Ovary
# [7] = Malme-3M, MALME3M, Skin (Melanoma)
# [8] = NCI-H292, NCI-H292, Lung - NSCLC
# [9] = NCI-H295R, Endocrine - Adrenal gland
# [10] = NCI-H441, NCIH441, Lung - NSCLC
# [11] = NCI-H460, NCI-H460, Lung - NSCLC
# [12] = NCI-H520, NCI-H520, Lung - NSCLC
# [13] = NCI-H596, NCI-H596, Lung - NSCLC
# [14] = NCI-H661, NCI-H661, Lung - NSCLC
# [15] = NTERA-2-cl-D1, NTERA-2 cl.D1, Testis
# [16] = OVCAR-3, OVCAR3, Female GU - Ovary
# [17] = RPMI-7951, RPMI-7951, Skin (Melanoma)
# [18] = SAOS-2, SaOS2, Soft Tissue - Osteosarcoma
compound,measurement,setting,value
"CC(C)=CCC[C@@H]1C(O)Oc2c(C)cc(O)c3c2[C@H]1CC[C@H]3C (stereo partly shown) [Compound 2, 5,18-epoxyserrulat-14-en-8,18-diol]",GI50,[1],4.58 µM
same,IC50,[1],4.59 µM
same,EC50,"KLE, Female GU - Uterus",26.3 µM
same,GI50,"KLE, Female GU - Uterus",20.5 µM
same,IC50,"KLE, Female GU - Uterus",26.3 µM
same,EC50,"KPL-1, KPL-1, Breast",4.7 µM
same,GI50,"KPL-1, KPL-1, Breast",4.7 µM
same,IC50,"KPL-1, KPL-1, Breast",4.73 µM
same,EC50,"KU812, KU812, Leukemia",6.52 µM
same,GI50,"KU812, KU812, Leukemia",5.66 µM
same,IC50,"KU812, KU812, Leukemia",6.52 µM
same,EC50,"L-428, L-428, Lymphoma",8.87 µM
same,GI50,"L-428, L-428, Lymphoma",8.83 µM
same,IC50,"L-428, L-428, Lymphoma",8.87 µM
same,EC50,"LNCaP, Prostate",0.86 µM
same,GI50,"LNCaP, Prostate",0.28 µM
same,IC50,"LNCaP, Prostate",0.86 µM
same,EC50,"LS-123, LS123, Colon",6.57 µM
same,GI50,"LS-123, LS123, Colon",13.4 µM
same,IC50,"LS-123, LS123, Colon",18.4 µM
same,EC50,"LS-411N, LS411N, Colon",23.9 µM
same,GI50,"LS-411N, LS411N, Colon",23.4 µM
same,IC50,"LS-411N, LS411N, Colon",23.9 µM
same,EC50,"LS-1034, LS1034, Colon",12.7 µM
same,GI50,"LS-1034, LS1034, Colon",12 µM
same,IC50,"LS-1034, LS1034, Colon",12.7 µM
same,EC50,"M059J, CNS - Glioma",9.98 µM
same,GI50,"M059J, CNS - Glioma",14.2 µM
same,IC50,"M059J, CNS - Glioma",15.8 µM
same,EC50,"MC116, MC116, Lymphoma",13.8 µM
same,GI50,"MC116, MC116, Lymphoma",13.8 µM
same,IC50,"MC116, MC116, Lymphoma",13.8 µM
same,EC50,"MC-IXC, CNS - Neuroblastoma",16.9 µM
same,GI50,"MC-IXC, CNS - Neuroblastoma",16.9 µM
same,IC50,"MC-IXC, CNS - Neuroblastoma",16.9 µM
same,EC50,"MCF7, MCF7, Breast",10.4 µM
same,GI50,"MCF7, MCF7, Breast",9.96 µM
same,IC50,"MCF7, MCF7, Breast",10.4 µM
same,EC50,"MDA-MB-231, MDA MB 231, Breast",4.39 µM
same,GI50,"MDA-MB-231, MDA MB 231, Breast",4.36 µM
same,IC50,"MDA-MB-231, MDA MB 231, Breast",4.39 µM
same,EC50,"MDA-MB-436, MDA-MB-436, Breast",9.72 µM
same,GI50,"MDA-MB-436, MDA-MB-436, Breast",9.73 µM
same,IC50,"MDA-MB-436, MDA-MB-436, Breast",9.77 µM
same,EC50,"MDA-MB-453, MDA MB 453, Breast",3.68 µM
same,GI50,"MDA-MB-453, MDA MB 453, Breast",3.65 µM
same,IC50,"MDA-MB-453, MDA MB 453, Breast",3.69 µM
same,EC50,"MDA-MB-468, MDA MB 468, Breast",8.07 µM
same,GI50,"MDA-MB-468, MDA MB 468, Breast",8 µM
same,IC50,"MDA-MB-468, MDA MB 468, Breast",8.08 µM
same,EC50,[2],> 30 µM
same,GI50,[2],> 30 µM
same,IC50,[2],> 30 µM
same,EC50,"MEG-01, MEG01, Leukemia",13.8 µM
same,GI50,"MEG-01, MEG01, Leukemia",13.7 µM
same,IC50,"MEG-01, MEG01, Leukemia",13.8 µM
same,EC50,"MES-SA, Soft Tissue - Sarcoma",9.26 µM
same,GI50,"MES-SA, Soft Tissue - Sarcoma",9.22 µM
same,IC50,"MES-SA, Soft Tissue - Sarcoma",9.26 µM
same,EC50,[3],> 30 µM
same,GI50,[3],> 30 µM
same,IC50,[3],> 30 µM
same,EC50,[4],7.85 µM
same,GI50,[4],7.85 µM
same,IC50,[4],7.85 µM
same,EC50,[5],16.3 µM
same,GI50,[5],16.2 µM
same,IC50,[5],16.3 µM
same,EC50,"MOLT-3, MOLT-3, Leukemia",1.27 µM
same,GI50,"MOLT-3, MOLT-3, Leukemia",1.26 µM
same,IC50,"MOLT-3, MOLT-3, Leukemia",1.27 µM
same,EC50,"MOLT-16, MOLT-16, Leukemia",13.3 µM
same,GI50,"MOLT-16, MOLT-16, Leukemia",13.3 µM
same,IC50,"MOLT-16, MOLT-16, Leukemia",13.3 µM
same,EC50,[6],7.55 µM
same,GI50,[6],8.72 µM
same,IC50,[6],8.78 µM
same,EC50,"MT-3, Colon",16.9 µM
same,GI50,"MT-3, Colon",16.8 µM
same,IC50,"MT-3, Colon",16.9 µM
same,EC50,"MV4-11, MV-4-11, Leukemia",8.56 µM
same,GI50,"MV4-11, MV-4-11, Leukemia",8.52 µM
same,IC50,"MV4-11, MV-4-11, Leukemia",8.56 µM
same,EC50,"MX1, Leukemia",10.8 µM
same,GI50,"MX1, Leukemia",10.8 µM
same,IC50,"MX1, Leukemia",10.8 µM
same,EC50,[7],19.8 µM
same,GI50,[7],17.3 µM
same,IC50,[7],19.8 µM
same,EC50,"MeWo, Skin (Melanoma)",9.45 µM
same,GI50,"MeWo, Skin (Melanoma)",9.91 µM
same,IC50,"MeWo, Skin (Melanoma)",9.97 µM
same,EC50,"NALM-6, NALM-6, Leukemia",1.67 µM
same,GI50,"NALM-6, NALM-6, Leukemia",1.68 µM
same,IC50,"NALM-6, NALM-6, Leukemia",1.68 µM
same,EC50,"NAMALWA, Lymphoma",5.71 µM
same,GI50,"NAMALWA, Lymphoma",5.7 µM
same,IC50,"NAMALWA, Lymphoma",5.71 µM
same,EC50,"NCI-H69, NCI-H69, Lung - SCLC",16.2 µM
same,GI50,"NCI-H69, NCI-H69, Lung - SCLC",14.9 µM
same,IC50,"NCI-H69, NCI-H69, Lung - SCLC",16.2 µM
same,EC50,[8],16.7 µM
same,GI50,[8],16.6 µM
same,IC50,[8],16.7 µM
same,EC50,[9],> 30 µM
same,GI50,[9],> 30 µM
same,IC50,[9],> 30 µM
same,EC50,[10],> 30 µM
same,GI50,[10],> 30 µM
same,IC50,[10],> 30 µM
same,EC50,"NCI-H446, NCIH446, Lung - SCLC",9.75 µM
same,GI50,"NCI-H446, NCIH446, Lung - SCLC",9.77 µM
same,IC50,"NCI-H446, NCIH446, Lung - SCLC",9.85 µM
same,EC50,[11],5.57 µM
same,GI50,[11],5.91 µM
same,IC50,[11],5.92 µM
same,EC50,"NCI-H508, NCI-H508, Colon",> 30 µM
same,GI50,"NCI-H508, NCI-H508, Colon",> 30 µM
same,IC50,"NCI-H508, NCI-H508, Colon",> 30 µM
same,EC50,[12],9.03 µM
same,GI50,[12],9.17 µM
same,IC50,[12],9.2 µM
same,EC50,[13],12 µM
same,GI50,[13],14.4 µM
same,IC50,[13],15.1 µM
same,EC50,[14],9.51 µM
same,GI50,[14],9.51 µM
same,IC50,[14],9.51 µM
same,EC50,"NCI-H747, NCI-H747, Colon",12.3 µM
same,GI50,"NCI-H747, NCI-H747, Colon",> 30 µM
same,IC50,"NCI-H747, NCI-H747, Colon",> 30 µM
same,EC50,[15],12.5 µM
same,GI50,[15],12.3 µM
same,IC50,[15],12.5 µM
same,EC50,"OCUG-1, OCUG-1, Liver",> 30 µM
same,GI50,"OCUG-1, OCUG-1, Liver",29.9 µM
same,IC50,"OCUG-1, OCUG-1, Liver",> 30 µM
same,EC50,"OE19, OE19, Head and Neck",> 30 µM
same,GI50,"OE19, OE19, Head and Neck",> 30 µM
same,IC50,"OE19, OE19, Head and Neck",> 30 µM
same,EC50,"OE21, OE21, Head and Neck",> 30 µM
same,GI50,"OE21, OE21, Head and Neck",> 30 µM
same,IC50,"OE21, OE21, Head and Neck",> 30 µM
same,EC50,[16],14.4 µM
same,GI50,[16],13.7 µM
same,IC50,[16],14.4 µM
same,EC50,"PA-1, Female GU - Ovary",11.6 µM
same,GI50,"PA-1, Female GU - Ovary",16.2 µM
same,IC50,"PA-1, Female GU - Ovary",16.3 µM
same,EC50,"PANC-1, PANC-1, Pancreas",7.06 µM
same,GI50,"PANC-1, PANC-1, Pancreas",7.01 µM
same,IC50,"PANC-1, PANC-1, Pancreas",7.06 µM
same,EC50,"PC-3, Prostate",12 µM
same,GI50,"PC-3, Prostate",11.8 µM
same,IC50,"PC-3, Prostate",12 µM
same,EC50,"PFSK-1, PFSK-1, CNS - Glioma",14.7 µM
same,GI50,"PFSK-1, PFSK-1, CNS - Glioma",14.6 µM
same,IC50,"PFSK-1, PFSK-1, CNS - Glioma",14.7 µM
same,EC50,"PSN1, PSN-1, Pancreas",12 µM
same,GI50,"PSN1, PSN-1, Pancreas",12 µM
same,IC50,"PSN1, PSN-1, Pancreas",12 µM
same,EC50,"RD, Soft Tissue - Sarcoma",2.98 µM
same,GI50,"RD, Soft Tissue - Sarcoma",2.96 µM
same,IC50,"RD, Soft Tissue - Sarcoma",2.98 µM
same,EC50,"RKO, Colon",7.22 µM
same,GI50,"RKO, Colon",7.92 µM
same,IC50,"RKO, Colon",7.92 µM
same,EC50,"RKOE6, RKOE6, Colon",6.95 µM
same,GI50,"RKOE6, RKOE6, Colon",6.93 µM
same,IC50,"RKOE6, RKOE6, Colon",6.95 µM
same,EC50,"RPMI-6666, RPMI 6666, Lymphoma",10.4 µM
same,GI50,"RPMI-6666, RPMI 6666, Lymphoma",10.7 µM
same,IC50,"RPMI-6666, RPMI 6666, Lymphoma",10.7 µM
same,EC50,[17],5.77 µM
same,GI50,[17],6.13 µM
same,IC50,[17],6.15 µM
same,EC50,"RPMI-8226, RPMI 8226, Myeloma",2.02 µM
same,GI50,"RPMI-8226, RPMI 8226, Myeloma",1.95 µM
same,IC50,"RPMI-8226, RPMI 8226, Myeloma",2.02 µM
same,EC50,"RS4-11, RS4, 11, Leukemia",6.43 µM
same,GI50,"RS4-11, RS4, 11, Leukemia",6.3 µM
same,IC50,"RS4-11, RS4, 11, Leukemia",6.43 µM
same,EC50,"Raji, Lymphoma",8.04 µM
same,GI50,"Raji, Lymphoma",8.04 µM
same,IC50,"Raji, Lymphoma",8.04 µM
same,EC50,"Ramos, Ramos (RA 1), Lymphoma",4.39 µM
same,GI50,"Ramos, Ramos (RA 1), Lymphoma",4.39 µM
same,IC50,"Ramos, Ramos (RA 1), Lymphoma",4.39 µM
same,EC50,[18],15.7 µM
same,GI50,[18],15.1 µM
same,IC50,[18],15.7 µM
same,EC50,"SCC-4, SCC-4, Head and Neck",> 30 µM
same,GI50,"SCC-4, SCC-4, Head and Neck",> 30 µM
same,IC50,"SCC-4, SCC-4, Head and Neck",> 30 µM
same,EC50,"SCC-9, SCC-9, Head and Neck",26.7 µM
same,GI50,"SCC-9, SCC-9, Head and Neck",27.3 µM
same,IC50,"SCC-9, SCC-9, Head and Neck",27.3 µM
same,EC50,"SCC-25, SCC-25, Head and Neck",> 30 µM
same,GI50,"SCC-25, SCC-25, Head and Neck",> 30 µM
same,IC50,"SCC-25, SCC-25, Head and Neck",> 30 µM
same,EC50,"SCaBER, Bladder",11.5 µM
same,GI50,"SCaBER, Bladder",11.4 µM
